The data set in a line: Phenytoin dissolution control. Format: physicochemical. The method, then: Probucol and phenytoin concentrations were quantified using a Agilent 1260 Infinity Quaternary HPLC equipped. The HPLC consisted of a reversed-phase EC-C18 column (Poroshell 120, 4.6×50 mm, 2.7 μm, Agilent, USA). The mobile phase was acetonitrile:water 96:4 for probucol and acetonitrile:water 40:60 for phenytoin, and the flow rate was 1.0 mL/min. A 10 μL aliquot of sample was injected, and the column effluent was detected at 241 nm for probucol (eluted at 2.90 min) and 225 nm for phenytoin (eluted at 1.40 min) with a UV detector (1260 Infinity Multiple Wavelength Detector, Agilent). The standard curve linearity was verified from 0.1 to 1000 μg/mL with an r^2 value of at least 0.999.

Take `O=C1NC(=O)C(c2ccccc2)(c2ccccc2)N1` [Phenytoin, phenytoin]: the Concentration reads like this: (Time (s) 0) 0 ng/mL; (Time (s) 4) 38000 ng/mL; (Time (s) 10) 46000 ng/mL; (Time (s) 20) 45000 ng/mL; (Time (s) 40) 48000 ng/mL; (Time (s) 90) 51000 ng/mL. Also, the Concentration is, setting by setting: (Time (s) 180) 45000 ng/mL; (Time (s) 360) 48000 ng/mL.

For the origin of these results see US10030089B2, “Sugar free, statistical copolymers made from at least three monomers” (REGENTS OF THE UNIVERSITY OF MINNESOTA, priority 2013, dated 2018).
